Measured values published in patent publication US20250243194A1, “ANTAGONIST OF ADENOSINE RECEPTORS” (AdoRx Therapeutics Limited, priority 2022, published 2025).

What was measured:
[1] = molecular target: human Adenosine A3 receptor (Homo sapiens (Human), UniProt P0DMS8); assay: Adenosine receptor TR-FRET binding assay (A3); conditions: inhibition of binding of 100 nM CA200645; CHO cell membranes; Ki from IC50 by Cheng and Prusoff
Description: (§1) All FRET binding experiments were conducted at room temperature in white 384-well plates, in assay binding buffer containing 1× LabMed (Cisbio, France), 100 μg/mL saponin, 1% DMSO and 0.02% pluronic acid. Binding of the fluorescently labelled Adenosine receptor antagonist XAC (CA200645, FRET acceptor) to terbium-labelled A1, A2a, A2b and A3 adenosine receptors (FRET donors) was detected by time-resolved FRET due to the close proximity of the donor and acceptor in a binding event. To investigate the ability of unlabelled test compounds to bind to Adenosine A1, A2a, A2b and A3 receptors, dose response curves were constructed that determined the ability of a range of concentrations to inhibit the binding of 30 nM CA200645 to the A2b receptor and 100 nM CA200645 to the A1, A2a, and A3 receptor.
(§2) Serial dilution (1:3 dilutions) of test compounds in neat DMSO and transfer of a 400 nL sample of test compound into the assay plate was carried out using the Mosquito (TTP Labtech, UK). The compound samples were incubated for 2 hours at room temperature with a fixed concentration of CA200645 defined for each receptor (see above) and CHO cell membranes containing the human Adenosine A1 (0.5 μg/well), A2a (0.3 μg/well), A2b (1 μg/well) or A3 (1 μg/well) receptor in 40 μL of assay buffer. Total and non-specific binding of CA200645 was determined in the absence and presence of 10 μM XAC, respectively. Following 2 hours incubation, the level of CA200645 binding was detected on a Pherastar FSX (BMG Labtech, Germany) using standard TR-FRET settings. The terbium donor was excited with three laser flashes at a wavelength of 337 nm, and donor and acceptor emission was detected at 620 nm and 665 nm wavelengths, respectively. FRET ratios were obtained by multiplying the acceptor/donor ratio value by 10,000. Specific binding was determined by subtracting the non-specific binding FRET ratio from the total binding FRET ratio. Compound IC50 curves were analysed using GraphPad Prism 7.0 (GraphPad, USA) and Ki affinity values were determined from the obtained IC50 values using the method of Cheng and Prusoff.

[2] = molecular target: human Adenosine A2b receptor (Homo sapiens (Human), UniProt P29275); assay: Adenosine receptor TR-FRET binding assay (A2b); conditions: inhibition of binding of 30 nM CA200645; CHO cell membranes; Ki from IC50 by Cheng and Prusoff
Description: as §1, §2

[3] = molecular target: human Adenosine A2a receptor (Homo sapiens (Human), UniProt P29274); assay: Adenosine receptor TR-FRET binding assay (A2a); conditions: inhibition of binding of 100 nM CA200645; CHO cell membranes; Ki from IC50 by Cheng and Prusoff
Description: as §1, §2

[4] = molecular target: human Adenosine A1 receptor (Homo sapiens (Human), UniProt P30542); assay: Adenosine receptor TR-FRET binding assay (A1); conditions: inhibition of binding of 100 nM CA200645; CHO cell membranes; Ki from IC50 by Cheng and Prusoff
Description: as §1, §2

[5] = tested on: CD8+ T cells in human whole blood; assay: Measurement of pCREB in CD8+ T cells in human whole blood; assay type: cell-based; conditions: T-cell, 3 μM NECA, rolipram, FACS
Description: Heparinised human whole blood was pre-incubated at 37° C. with serial dilutions of A2a antagonists for 20 min. and the phosphodiesterase inhibitor rolipram to amplify the pCREB response. The adenosine receptor agonist NECA is then added at a final concentration of 3 μM and following a 60 min incubation the blood is fixed and red blood cells lysed. White blood cells are isolated, permeabilized and stained with directly conjugated fluorescent antibodies to phospho-CREB (Alexa Fluor 488) and CD8 (Alexa Fluor 647) and the level of phospho-CREB in CD8+ T cells is measured by FACS using a BD Accuri C6 Flow Cytometer.

Chain of human Adenosine A1 receptor (P30542 whole entry): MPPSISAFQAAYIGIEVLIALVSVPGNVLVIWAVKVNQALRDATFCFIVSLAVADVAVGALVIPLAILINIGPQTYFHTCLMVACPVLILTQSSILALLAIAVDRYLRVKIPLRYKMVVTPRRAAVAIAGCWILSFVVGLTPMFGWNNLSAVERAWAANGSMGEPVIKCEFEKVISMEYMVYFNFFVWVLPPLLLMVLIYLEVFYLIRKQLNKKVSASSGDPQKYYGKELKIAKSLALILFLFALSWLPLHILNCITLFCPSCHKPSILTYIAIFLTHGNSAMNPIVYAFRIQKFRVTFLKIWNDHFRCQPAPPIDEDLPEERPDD
Chain of human Adenosine A2b receptor (P29275 whole entry): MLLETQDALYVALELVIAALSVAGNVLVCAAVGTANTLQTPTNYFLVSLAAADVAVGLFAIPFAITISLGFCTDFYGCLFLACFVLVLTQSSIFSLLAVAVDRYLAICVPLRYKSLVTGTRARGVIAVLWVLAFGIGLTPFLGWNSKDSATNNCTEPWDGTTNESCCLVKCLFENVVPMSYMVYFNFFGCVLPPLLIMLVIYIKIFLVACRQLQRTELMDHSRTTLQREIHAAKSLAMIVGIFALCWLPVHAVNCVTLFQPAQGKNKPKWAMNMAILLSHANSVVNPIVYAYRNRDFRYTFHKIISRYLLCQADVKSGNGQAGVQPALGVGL
Chain of human Adenosine A3 receptor (P0DMS8 whole entry): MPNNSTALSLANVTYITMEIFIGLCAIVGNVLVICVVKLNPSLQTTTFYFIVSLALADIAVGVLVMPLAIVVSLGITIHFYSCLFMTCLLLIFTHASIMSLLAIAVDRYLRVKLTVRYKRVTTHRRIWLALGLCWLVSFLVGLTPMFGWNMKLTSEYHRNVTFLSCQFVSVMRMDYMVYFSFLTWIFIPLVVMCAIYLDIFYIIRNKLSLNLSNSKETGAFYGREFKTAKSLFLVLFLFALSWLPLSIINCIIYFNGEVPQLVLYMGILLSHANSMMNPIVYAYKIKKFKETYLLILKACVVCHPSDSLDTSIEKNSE
Chain of human Adenosine A2a receptor (P29274 whole entry): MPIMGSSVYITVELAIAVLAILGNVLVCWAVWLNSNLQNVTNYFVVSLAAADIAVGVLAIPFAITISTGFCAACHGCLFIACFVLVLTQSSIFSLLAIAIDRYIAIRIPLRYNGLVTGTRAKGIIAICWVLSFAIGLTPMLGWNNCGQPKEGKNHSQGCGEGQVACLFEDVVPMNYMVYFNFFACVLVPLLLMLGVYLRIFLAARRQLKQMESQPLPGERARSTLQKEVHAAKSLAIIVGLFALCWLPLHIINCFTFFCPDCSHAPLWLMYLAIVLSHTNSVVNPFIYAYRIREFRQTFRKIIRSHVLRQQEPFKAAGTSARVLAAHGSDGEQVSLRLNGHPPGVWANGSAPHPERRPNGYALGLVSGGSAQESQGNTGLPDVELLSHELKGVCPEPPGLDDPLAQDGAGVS

Q: Which Ki [1] does the source give for `Cc1cc(-c2sc(NC(=O)N3CC4(COC4)C3)nc2-c2cccc(C#N)c2)cc2[nH]ncc12` [Example 2.2, N-[4-(3-Cyanophenyl)-5-(4-methyl-1H-indazol-6-yl)thiazol-2-yl]-2-oxa-6-azaspiro[3.3]heptane-6-carboxamide] here?
A: 820 nM

Q: What about the Ki [2] of the same molecule?
A: 3.3 nM

Q: What about the Ki [3] of the same molecule?
A: 2.69 nM

Q: What about the Ki [4] of the same molecule?
A: 2 nM

Q: For `Cc1cc(-c2sc(NC(=O)N3CC4(COC4)C3)nc2-c2cccc(C#N)c2)cc2[nH]nnc12` [Example 2.3, N-[4-(3-Cyanophenyl)-5-(7-methyl-3H-benzotriazol-5-yl)thiazol-2-yl]-2-oxa-6-azaspiro[3.3]heptane-6-carboxamide], which Ki [1] is on record?
A: 466 nM

Q: What about the Ki [2] of the same molecule?
A: 1.7 nM

Q: What about the Ki [3] of the same molecule?
A: 1.37 nM

Q: And the Ki [4]?
A: 1 nM

Q: `N#Cc1cccc(-c2nc(NC(=O)N3CC4(COC4)C3)sc2-c2ccnc3[nH]ccc23)c1` [Example 2.4, N-[4-(3-Cyanophenyl)-5-(1H-pyrrolo[2,3-b]pyridin-4-yl)thiazol-2-yl]-2-oxa-6-azaspiro[3.3]heptane-6-carboxamide] was tested. Which Ki [1] did it give?
A: 290 nM

Q: And the Ki [2]?
A: 0.5 nM

Q: What about the Ki [3] of the same molecule?
A: 1 nM

Q: What about the Ki [4] of the same molecule?
A: 1 nM

Q: How did the Ki [1] turn out when `Cc1cc(-c2sc(NC(=O)N3CC4(COC4)C3)nc2-c2cccc(C#N)c2)c2cn[nH]c2n1` [Example 2.5, N-[4-(3-Cyanophenyl)-5-(6-methyl-1H-pyrazolo[3,4-b]pyridin-4-yl)thiazol-2-yl]-2-oxa-6-azaspiro[3.3]heptane-6-carboxamide] was run?
A: 2600 nM

Q: What about the Ki [2] of the same molecule?
A: 0.9 nM

Q: What about the Ki [3] of the same molecule?
A: 3.3 nM

Q: And the Ki [4]?
A: 14 nM

Q: With `Cc1ncnc2ccc(-c3sc(NC(=O)N4CCC5(CC4)CNCCO5)nc3-c3cccc(C#N)c3)cc12` [Example 3.1, N-[4-(3-Cyanophenyl)-5-(4-methylquinazolin-6-yl)thiazol-2-yl]-1-oxa-4,9-diazaspiro[5.5]undecane-9-carboxamide] as the molecule, how does the IC50 [5] read?
A: 10 nM

Q: What about the Ki [2] of the same molecule?
A: 1.3 nM

Q: And the Ki [3]?
A: 0.15 nM

Q: And the Ki [4]?
A: 48 nM

Q: Which results are given for `Cc1ncnc2ccc(-c3sc(NC(=O)N4CCC5(CNCCO5)C4)nc3-c3cccc(C#N)c3)cc12` (stereo not shown) [Example 4, N-[4-(3-Cyanophenyl)-5-(4-methylquinazolin-6-yl)thiazol-2-yl]-6-oxa-2,9-diazaspiro[4.5]decane-2-carboxamide]?
A: IC50 [5]: 10 nM; Ki [2]: 1.9 nM; Ki [3]: 0.19 nM; Ki [4]: 27 nM

Q: With `Cc1ncnc2ccc(-c3sc(NC(=O)N4CC[C@@](C)(C#N)C4)nc3-c3cccc(C#N)c3)cc12` [Example 7.1, (3R)-3-Cyano-N-[4-(3-cyanophenyl)-5-(4-methylquinazolin-6-yl)thiazol-2-yl]-3-methyl-pyrrolidine-1-carboxamide] as the molecule, how does the Ki [1] read?
A: 828 nM

Q: And the Ki [2]?
A: 0.9 nM

Q: What about the Ki [3] of the same molecule?
A: 36.9 nM

Q: What about the Ki [4] of the same molecule?
A: 121 nM

Q: For `Cc1ncnc2ccc(-c3sc(NC(=O)N4CC5(COC5)C4)nc3-c3cccc(C#N)c3)cc12` [Example 7.29, N-[4-(3-Cyanophenyl)-5-(4-methylquinazolin-6-yl)thiazol-2-yl]-2-oxa-6-azaspiro[3.3]heptane-6-carboxamide], which IC50 [5] is on record?
A: 5 nM

Q: And the Ki [2]?
A: 0.5 nM

Q: What about the Ki [3] of the same molecule?
A: 0.09 nM

Q: What about the Ki [4] of the same molecule?
A: 3 nM

Q: Which results are given for `N#Cc1cccc(-c2nc(NC(=O)N3CC4(COC4)C3)sc2-c2ccc3ncncc3c2)c1` [Example 10, N-[4-(3-Cyanophenyl)-5-quinazolin-6-yl-thiazol-2-yl]-2-oxa-6-azaspiro[3.3]heptane-6-carboxamide]?
A: Ki [2]: 4.7 nM; Ki [3]: 0.85 nM; Ki [4]: 7 nM

Q: How did the Ki [2] turn out when `CCc1ncnc2ccc(-c3sc(NC(=O)N4CC5(COC5)C4)nc3-c3cccc(C#N)c3)cc12` [Example 13, N-[4-(3-Cyanophenyl)-5-(4-ethylquinazolin-6-yl)thiazol-2-yl]-2-oxa-6-azaspiro[3.3]heptane-6-carboxamide] was run?
A: 1.7 nM

Q: What about the Ki [3] of the same molecule?
A: 0.16 nM

Q: And the Ki [4]?
A: 2 nM

Q: Which results are given for `Cc1nc(C)c(-c2sc(NC(=O)N3CCC(C)(C#N)CC3)nc2-c2cccc(C#N)c2)o1` [Example 14, 4-Cyano-N-[4-(3-cyanophenyl)-5-(2,4-dimethyloxazol-5-yl)thiazol-2-yl]-4-methyl-piperidine-1-carboxamide]?
A: Ki [2]: 2.8 nM; Ki [3]: 0.42 nM; Ki [4]: 12 nM

Q: How did the Ki [2] turn out when `Cc1nc(C)c(-c2sc(NC(=O)N3CC4(COC4)C3)nc2-c2cccc(C#N)c2)o1` [Example 15, N-[4-(3-Cyanophenyl)-5-(2,4-dimethyloxazol-5-yl)thiazol-2-yl]-2-oxa-6-azaspiro[3.3]heptane-6-carboxamide] was run?
A: 6.2 nM

Q: And the Ki [3]?
A: 1.74 nM

Q: And the Ki [4]?
A: 14 nM

Q: What does the source list for `N#Cc1cccc(-c2nc(NC(=O)N3CC4(COC4)C3)sc2-c2c[nH]c3ncccc23)c1` [Example 17, N-[4-(3-Cyanophenyl)-5-(1H-pyrrolo[2,3-b]pyridin-3-yl)thiazol-2-yl]-2-oxa-6-azaspiro[3.3]heptane-6-carboxamide]?
A: Ki [1]: 305 nM; Ki [2]: 0.8 nM; Ki [3]: 3.11 nM; Ki [4]: 1 nM

Q: How did the Ki [1] turn out when `Cc1cc(-c2sc(NC(=O)N3CC4(COC4)C3)nc2-c2cccc(C#N)c2)cn2c(C)cnc12` [Example 18, N-[4-(3-Cyanophenyl)-5-(3,8-dimethylimidazo[1,2-a]pyridin-6-yl)thiazol-2-yl]-2-oxa-6-azaspiro[3.3]heptane-6-carboxamide] was run?
A: 2630 nM

Q: And the Ki [2]?
A: 0.9 nM

Q: What about the Ki [3] of the same molecule?
A: 0.11 nM

Q: What about the Ki [4] of the same molecule?
A: 1 nM

Q: `Cc1cc(-c2sc(NC(=O)N3CCC(C)(C#N)CC3)nc2-c2cccc(C#N)c2)c2[nH]ncc2n1` [Example 19, 4-Cyano-N-[4-(3-cyanophenyl)-5-(5-methyl-1H-pyrazolo[4,3-b]pyridin-7-yl)thiazol-2-yl]-4-methyl-piperidine-1-carboxamide] was tested. Which IC50 [5] did it give?
A: 216 nM

Q: And the Ki [2]?
A: 1.8 nM

Q: What about the Ki [3] of the same molecule?
A: 2 nM

Q: What about the Ki [4] of the same molecule?
A: 240 nM

Q: Which Ki [1] does the source give for `Cn1ccc2c(-c3sc(NC(=O)N4CC5(COC5)C4)nc3-c3cccc(C#N)c3)ccnc21` [Example 21, N-[4-(3-Cyanophenyl)-5-(1-methylpyrrolo[2,3-b]pyridin-4-yl)thiazol-2-yl]-2-oxa-6-azaspiro[3.3]heptane-6-carboxamide] here?
A: 421 nM

Q: And the Ki [2]?
A: 2.6 nM

Q: And the Ki [3]?
A: 8.33 nM

Q: And the Ki [4]?
A: 4 nM

Q: For `Cc1cnc2ccc(-c3sc(NC(=O)N4CC5(COC5)C4)nc3-c3cccc(C#N)c3)cn12` [Example 22, N-[4-(3-Cyanophenyl)-5-(3-methylimidazo[1,2-a]pyridin-6-yl)thiazol-2-yl]-2-oxa-6-azaspiro[3.3]heptane-6-carboxamide], which Ki [1] is on record?
A: 2550 nM

Q: And the Ki [2]?
A: 1.4 nM

Q: What about the Ki [3] of the same molecule?
A: 0.15 nM

Q: What about the Ki [4] of the same molecule?
A: 0.4 nM

Q: What does the source list for `Cc1cc(-c2sc(NC(=O)N3CC4(COC4)C3)nc2-c2cccc(C#N)c2)c2ccn(C)c2n1` [Example 24, N-[4-(3-Cyanophenyl)-5-(1,6-dimethylpyrrolo[2,3-b]pyridin-4-yl)thiazol-2-yl]-2-oxa-6-azaspiro[3.3]heptane-6-carboxamide]?
A: Ki [2]: 7.2 nM; Ki [3]: 10.5 nM; Ki [4]: 245 nM

Q: For `Cc1cc(-c2sc(NC(=O)N3CC4(COC4)C3)nc2-c2cccc(C#N)c2)cn2ccnc12` [Example 29, N-[4-(3-Cyanophenyl)-5-(8-methylimidazo[1,2-a]pyridin-6-yl)thiazol-2-yl]-2-oxa-6-azaspiro[3.3]heptane-6-carboxamide], which Ki [2] is on record?
A: 1.3 nM

Q: And the Ki [3]?
A: 1.88 nM

Q: And the Ki [4]?
A: 4 nM

Q: Which results are given for `Cc1cc(-c2sc(NC(=O)N3CC4(COC4)C3)nc2-c2cccc(C#N)c2)cc2cnn(C)c12` [Example 30, N-[4-(3-Cyanophenyl)-5-(1,7-dimethylindazol-5-yl)thiazol-2-yl]-2-oxa-6-azaspiro[3.3]heptane-6-carboxamide]?
A: Ki [2]: 13.2 nM; Ki [3]: 0.59 nM; Ki [4]: 14 nM
